Laboratory results reported in PMC4626104, “Inhibition on Proteasome β1 Subunit Might Contribute to the Anti-Cancer Effects of Fangchinoline in Human Prostate Cancer Cells” (PLoS ONE, 2015).
Where two headings read alike, the source gives them in different places.

Tests used:
[1] = system: caspase-3, PARP, LC-3B in PC-3 cells; experiment: Western blotting of apoptosis and autophagy markers in PSMB6 knockdown PC-3 cells; type: cell-based, human; details: 40 μM, 24 h
Procedure: (§1) Western blotting assay was conducted as described before. Briefly, an aliquot of protein (100 μg) sample was loaded onto a 12% SDS gel, separated electrophoretically, and transferred to a Nitrocellulose membrane (Bio-Rad). After the membrane was incubated with 10 mM TBS with […] and 5% dehydrated skim milk to block nonspecific protein binding, the membrane was incubated with primary antibodies overnight at 4°C. The primary antibodies (all from Cell Signaling Technology) used were rabbit polyclonal antibody against human IκB-α (#4812, 1:400), Bax (#2772, 1:400), proteasome β1 subunit (PSMB6) (#13267, 1:500), β-actin (#4967, 1:400) and mouse monoclonal antibody against human p27 Kip1 (#3688, 1:400) or ubiquitin (#3936, 1:1000). After TBS washes, blots were then incubated with secondary antibody for 2 h at room temperature at a 1:1000 dilution and then visualized using chemiluminescence (Pierce Biotechnology, Rockford, IL, USA). The secondary antibodies used were HRP-linked goat anti-rabbit IgG (#7074) and HRP-linked horse anti-mouse IgG (#7076), both from Cell Signaling Technology.
Validated siRNAs for PSMB6 (Sigma-Aldrich) were transfected into PC-3 cells by using Lipofectamine RNAiMAX (Invitrogen) according to the manufacturer’s protocol. Scrambled negative control siRNAs (Sigma-Aldrich) were used as negative control. […]

LnCap cells = experiment: MTT assay of cell proliferation, LnCap cells; type: cell-based; details: Homo sapiens, read-out: IC50 inhibiting cell proliferation
Procedure: The inhibitive effects of fangchinoline on proliferation of PC-3 cells or LnCap cells was observed by checking cell viability of cells using MTT assay as described before. Briefly, cells were seeded in 96-well plates at a density of 5×10^4 cells/mL for PC-3 cell and 4×10^4 cells/mL for LnCap cells. After overnight culture, the media were changed into fresh media containing various concentrations of fangchinoline or 0.1% DMSO (solvent control) for 24, 48 h or 72 h. Cell viability was evaluated by measuring the mitochondrial-dependent conversion of the yellow tetrazolium salt MTT to purple formazan crystals by metabolic active cells. The optical density (proportional to the number of live cells) was assessed with a Microplate Reader Bio-Rad 550 at 570 nm. IC50 value (half-maximal inhibitory concentration) was calculated by the Logit method.

[2] = system: ubiquitinated proteins, IκB-α, Bax, p27 in PC-3 cells; experiment: Western blotting of ubiquitinated proteins and proteasome substrates in PC-3 cells; type: cell-based, human
Procedure: as §1

[3] = biological target: T1, purified human erythrocyte 20S proteasome (Homo sapiens, UniProt P28072); experiment: C-L activity of purified human 20S proteasome; type: biochemical
T1 construct: purchased Enzo Life Sciences, Inc; host or cells: human erythrocytes
Procedure: The 20S proteasome assay kit was bought from Enzo Life Sciences, Inc. (Farmingdale, NY 11735, USA). The Km, Vmax values of the purified human erythrocyte 20S proteasome for fluorigenic peptide substrate Z-LLE-AMC are measured according to the instructions provided by the manufacturer. Inactivation of purified human erythrocyte 20S proteasome by fangchinoline was determined by monitoring the hydrolysis of substrate in the presence of different concentrations of fangcinoline. Assays were performed at 37°C in a reaction buffer (50 μL) containing 50 mM Tris/HCL, pH 7.5, 25 mM KCL, 10 mM NaCL, 1 mM MgCL2, 0.1 μg 20S proteasome and Z-LLE-AMC. Reactions were allowed to proceed for 120 min, and fluorescence data were collected every 1 min, and then plotted as a function of time. The apparent dissociation constant, Ki ^app, was determined by non-linear least-fit of the fractional velocity, vi/v0, as a function of [I], where vi is the steady state residual activity of the enzyme in the presence of inhibitor (I) and v0 is the initial velocity in the absence of inhibitor ( Vi/V0=1/1+[I]/Kiapp ). The dissociation constant, Ki, was calculated from the apparent dissociation constant, Ki ^app, using the following expression, where [S] is the substrate concentration and Km is the substrate binding constant ( Ki=Kiapp/1+[S]/Km ).

PC-3 cells = experiment: Flow cytometric analysis of apoptosis (Annexin V/PI) in PC-3 cells; type: cell-based, human; details: 24 h
Procedure: The induction of cell cycle arrest and apoptosis by fangchinoline in PC-3 cells was observed by using flow cytometric analysis as described in our previous reports. Briefly, for flow cytometry analysis of cell cycle, cells were collected after treatment, washed with PBS and then fixed with 70% ethanol at 4°C for overnight. After PBS washes, cells were re-suspended in staining buffer (10 mg/mL RNase A and […] propidium iodide in cold PBS) for 30 min in dark at room temperature and then analyzed using FACSCalibur Flow Cytometer. For flow cytometric analysis of apoptosis, Alexa Fluor 488 Annexin V & PI /Dead cell Apoptosis Kit (Invitrogen) was used. Cells were collected after treatment, washed with PBS and then resuspended in binding buffer and then incubated with Annexin V-FITC and propidium iodide for 15 min in dark at room temperature. Then, flow cytometric analysis was conducted and data analysis was performed with CellQuest software.

Q: COc1ccc2cc1Oc1ccc(cc1)C[C@H]1c3cc(c(OC)cc3CCN1C)Oc1c(O)c(OC)cc3c1[C@H](C2)N(C)CC3 [fangchinoline] was tested. Which “Effect of knockdown of proteasome β1 subunit on markers of apoptosis (caspase-3, PARP) and autophagy (LC-3B)” value [1] did it give?
A: ameliorated fangchinoline-induced apoptosis and autophagy

Q: And the IC50 (LnCap cells; 24 h)?
A: 36.2 ± 6.33 µM

Q: What about the IC50 (LnCap cells; 48 h) of the same compound?
A: 11.6 ± 0.22 µM

Q: And the IC50 (LnCap cells; 72 h)?
A: 12.7 ± 0.59 µM

Q: What about the “Ubiquitinated IκBα (Ub-IκBα), Ub-p27 and Ub-Bax levels” value [2] of the same compound?
A: dose-dependently and time-dependently induced increase

Q: And the “Treatment time after which accumulation of ubiquitinated proteins was observed” value ([2]; 27 μM)?
A: 1 h

Q: What about the “Lowest dose at which accumulation of ubiquitinated proteins was observed” value ([2]; 24 h treatment) of the same compound?
A: 8 µM

Q: And the “Hydrolysis of substrate Z-LLE-AMC by 20S proteasome” value ([3]; 500 μM fangchinoline, 75 μM Z-LLE-AMC)?
A: partly inhibited

Q: What about the Ki ([3]; substrate Z-LLE-AMC, 37°C) of the same compound?
A: 357 ± 30.6 µM

Q: What about the “Percentage (%) of apoptotic cells (Annexin^+/PI^+)” value (shortened to “Percentage (%) of apoptotic cells”) (PC-3 cells; 5 μM) of the same compound?
A: 6.74±1.14 %

Q: And the “Percentage (%) of apoptotic cells” value (PC-3 cells; 8 μM)?
A: 10.79±0.51 %

Q: What about the “Percentage (%) of apoptotic cells” value (PC-3 cells; 12 μM) of the same compound?
A: 13.53±0.19 %

Q: And the “Percentage (%) of apoptotic cells” value (PC-3 cells; 18 μM)?
A: 28.10±5.93 %

Q: What about the “Percentage (%) of apoptotic cells” value (PC-3 cells; 27 μM) of the same compound?
A: 37.52±4.04 %

Q: What about the “Percentage (%) of apoptotic cells” value (PC-3 cells; 40 μM) of the same compound?
A: 49.77±2.23 %
